From US20240034649A1, “METHODS FOR ERADICATING BIOFILMS FROM PLUMBING SYSTEMS” (GORDON & ROSENBLATT, LLC, priority 2014, published 2024)

Tests used:
[1] = system: Pseudomonas aeruginosa biofilms; test: Minimal Biofilm Eradication Concentration (MBEC) assay, Calgary biofilm device; format: cell-based; conditions: 22-25° C
Biofilm = conditions: shock dose 50-80 mg/mL over 8 hours, acidic conditions, outlets flushed approx. 1 hour; cited from earlier work
Legionella = conditions: cited from earlier work
[2] = at STP; cited from earlier work

| Molecule | Log10 reduction ([1]; Bleach 3.15 ppm, pH 6.5, 30 min) [CFU/mm^2] | Log10 reduction ([1]; Bleach 3.15 ppm, pH 7.5, 30 min) [CFU/mm^2] | Log10 reduction ([1]; Bleach 6.31 ppm, pH 6.5, 30 min) | Log10 reduction ([1]; Bleach 6.31 ppm, pH 7.5, 30 min) [CFU/mm^2] | Log10 reduction ([1]; Bleach 12.6 ppm, pH 6.5, 30 min) | Log10 reduction ([1]; Bleach 12.6 ppm, pH 7.5, 30 min) [CFU/mm^2] | Log10 reduction ([1]; Bleach 50.5 ppm, pH 6.5, 30 min) | Log10 reduction ([1]; Bleach 50.5 ppm, pH 7.5, 30 min) | Log10 reduction ([1]; CD 3.12 ppm, pH 6.5, 30 min) [CFU/mm^2] | Log10 reduction ([1]; CD 3.12 ppm, pH 7.5, 30 min) [CFU/mm^2] | Log10 reduction ([1]; CD 6.25 ppm, pH 6.5, 30 min) [CFU/mm^2] | Log10 reduction ([1]; CD 6.25 ppm, pH 7.5, 30 min) [CFU/mm^2] | Log10 reduction ([1]; CD 12.5 ppm, pH 6.5, 30 min) [CFU/mm^2] | Log10 reduction ([1]; CD 12.5 ppm, pH 7.5, 30 min) [CFU/mm^2] | Log10 reduction ([1]; CD 50.0 ppm, pH 6.5, 30 min) | Log10 reduction ([1]; CD 50.0 ppm, pH 7.5, 30 min) | bacteria recovered from showerheads after treatment (Biofilm) [cfu/ml] | time needed to achieve significant reduction in Legionella positivity (Legionella) [months] | solubility in water relative to chlorine [2] |
| --- | --- | --- | --- | --- | --- | --- | --- | --- | --- | --- | --- | --- | --- | --- | --- | --- | --- | --- | --- |
| OCl [Bleach, sodium hypochlorite] | 0.16 | 0.96 | Total inhibition | 1.91 | Total inhibition | 3.03 | Total inhibition | Total inhibition | – | – | – | – | – | – | – | – | – | – | – |
| chlorine dioxide [CD] | – | – | – | – | – | – | – | – | 0.82 | 1.63 | 2.56 | 2.38 | 2.34 | 2.49 | Total inhibition | total inhibition | > 3000 | > 12 | approximately 10 times |
